Measurements taken from patent publication US9604983B2, “Herbicidal 3-(2-benzyloxyphenyl)-2,4-dihydroxy-1,8-naphthyridine derivatives” (SYNGENTA LIMITED, priority 2013, dated 2017).

Legend:
Test in all cases: Post-emergence efficacy, glasshouse pot test
Assay type in all cases: in vivo
Settings in all cases: post-emergence application at 1000 g/ha; evaluated after 13 days; five point scale
[1] = system: Alopecurus myosuroides (ALOMY)
Protocol: (§1) B1 Post-emergence Efficacy Seeds of a variety of test species are sown in standard soil in pots:—Solanum nigrum (SOLNI), Amaranthus retoflexus (AMARE), Setaria faberi (SETFA), Alopecurus myosuroides (ALOMY), Echinochloa crus-galli (ECHCG), Ipomoea hederacea (IPOHE). After 8 days cultivation (post-emergence) under controlled conditions in a glasshouse (at 24/16° C., day/night; 14 hours light; 65% humidity), the plants are sprayed with an aqueous spray solution derived from the formulation of the technical active ingredient in acetone/water (50:50) solution containing 0.5% Tween 20 (polyoxyethelyene sorbitan monolaurate, CAS RN 9005-64-5). Compounds are applied at 1000 g/ha. The test plants are then grown in a glasshouse under controlled conditions in a glasshouse (at 24/16° C., day/night; 14 hours light; 65% humidity) and watered twice daily. After 13 days, the test is evaluated for the percentage damage caused to the plant. The biological activities are shown below in Table 13, on a five point scale (5=80-100%; 4=60-79%; 3=40-59%; 2=20-39%; 1=0-19%).

Solanum nigrum (SOLNI) = system: Solanum nigrum (SOLNI)
Protocol: as §1

[2] = system: Ipomoea hederacea (IPOHE)
Protocol: as §1

Setaria faberi (SETFA) = system: Setaria faberi (SETFA)
Protocol: as §1

[3] = system: Echinochloa crus-galli (ECHCG)
Protocol: as §1

[4] = system: Amaranthus retoflexus (AMARE)
Protocol: as §1

## CC(C)C(=O)Oc1c(-c2c(Cl)ccc(Cl)c2OCc2ccc(C(F)(F)F)cc2)c(=O)n(CC(F)F)c2ncccc12 [Compound 3.006]
[1]
  percentage damage caused to the plant, ALOMY: 1 (1=0-19%)
Solanum nigrum (SOLNI)
  percentage damage caused to the plant, SOLNI: 5 (5=80-100%)
[2]
  percentage damage caused to the plant, IPOHE: 5 (5=80-100%)
Setaria faberi (SETFA)
  percentage damage caused to the plant, SETFA: 1 (1=0-19%)
[3]
  percentage damage caused to the plant, ECHCG: 1 (1=0-19%)
[4]
  percentage damage caused to the plant, AMARE: 5 (5=80-100%)

## COc1ccnc2c1c(OC(=O)C(C)C)c(-c1c(Cl)ccc(Cl)c1OCc1ccccc1)c(=O)n2CC(F)F [Compound 3.007]
[1]
  percentage damage caused to the plant, ALOMY: 1 (1=0-19%)
Solanum nigrum (SOLNI)
  percentage damage caused to the plant, SOLNI: 2 (2=20-39%)
[2]
  percentage damage caused to the plant, IPOHE: 2 (2=20-39%)
Setaria faberi (SETFA)
  percentage damage caused to the plant, SETFA: 1 (1=0-19%)
[3]
  percentage damage caused to the plant, ECHCG: 1 (1=0-19%)
[4]
  percentage damage caused to the plant, AMARE: 4 (4=60-79%)

## CC(C)C(=O)Oc1c(-c2c(Cl)ccc(Cl)c2OCc2ccccc2)c(=O)n(CC(F)F)c2nccnc12 [Compound 3.008]
[1]
  percentage damage caused to the plant, ALOMY: 4 (4=60-79%)
Solanum nigrum (SOLNI)
  percentage damage caused to the plant, SOLNI: 5 (5=80-100%)
[2]
  percentage damage caused to the plant, IPOHE: 5 (5=80-100%)
Setaria faberi (SETFA)
  percentage damage caused to the plant, SETFA: 5 (5=80-100%)
[3]
  percentage damage caused to the plant, ECHCG: 5 (5=80-100%)
[4]
  percentage damage caused to the plant, AMARE: 5 (5=80-100%)

## O=c1c(-c2c(Cl)ccc(Cl)c2OCc2ccccc2)c(O)c2cccnc2n1CC(F)F [Compound 4.001]
[1]
  percentage damage caused to the plant, ALOMY: 4 (4=60-79%)
Solanum nigrum (SOLNI)
  percentage damage caused to the plant, SOLNI: 5 (5=80-100%)
[2]
  percentage damage caused to the plant, IPOHE: 5 (5=80-100%)
Setaria faberi (SETFA)
  percentage damage caused to the plant, SETFA: 1 (1=0-19%)
[3]
  percentage damage caused to the plant, ECHCG: 4 (4=60-79%)
[4]
  percentage damage caused to the plant, AMARE: 5 (5=80-100%)

## O=c1c(-c2c(Cl)ccc(Cl)c2OCc2ccc(Cl)cc2)c(O)c2cccnc2n1CC(F)F [Compound 4.003]
[1]
  percentage damage caused to the plant, ALOMY: 1 (1=0-19%)
Solanum nigrum (SOLNI)
  percentage damage caused to the plant, SOLNI: 5 (5=80-100%)
[2]
  percentage damage caused to the plant, IPOHE: 5 (5=80-100%)
Setaria faberi (SETFA)
  percentage damage caused to the plant, SETFA: 1 (1=0-19%)
[3]
  percentage damage caused to the plant, ECHCG: 2 (2=20-39%)
[4]
  percentage damage caused to the plant, AMARE: 5 (5=80-100%)

## Cc1ccc(COc2c(Cl)ccc(Cl)c2-c2c(O)c3cccnc3n(CC(F)F)c2=O)cc1 [Compound 4.004]
[1]
  percentage damage caused to the plant, ALOMY: 2 (2=20-39%)
Solanum nigrum (SOLNI)
  percentage damage caused to the plant, SOLNI: 5 (5=80-100%)
[2]
  percentage damage caused to the plant, IPOHE: 5 (5=80-100%)
Setaria faberi (SETFA)
  percentage damage caused to the plant, SETFA: 1 (1=0-19%)
[3]
  percentage damage caused to the plant, ECHCG: 2 (2=20-39%)
[4]
  percentage damage caused to the plant, AMARE: 5 (5=80-100%)

## O=c1c(-c2c(Cl)ccc(Cl)c2OCc2ccc(Cl)c(Cl)c2)c(O)c2cccnc2n1CC(F)F [Compound 4.005]
[1]
  percentage damage caused to the plant, ALOMY: 1 (1=0-19%)
Solanum nigrum (SOLNI)
  percentage damage caused to the plant, SOLNI: 5 (5=80-100%)
[2]
  percentage damage caused to the plant, IPOHE: 5 (5=80-100%)
Setaria faberi (SETFA)
  percentage damage caused to the plant, SETFA: 1 (1=0-19%)
[3]
  percentage damage caused to the plant, ECHCG: 1 (1=0-19%)
[4]
  percentage damage caused to the plant, AMARE: 5 (5=80-100%)

## O=c1c(-c2c(Cl)ccc(Cl)c2OCc2ccc(C(F)(F)F)cc2)c(O)c2cccnc2n1CC(F)F [Compound 4.006]
[1]
  percentage damage caused to the plant, ALOMY: 2 (2=20-39%)
Solanum nigrum (SOLNI)
  percentage damage caused to the plant, SOLNI: 5 (5=80-100%)
[2]
  percentage damage caused to the plant, IPOHE: 5 (5=80-100%)
Setaria faberi (SETFA)
  percentage damage caused to the plant, SETFA: 2 (2=20-39%)
[3]
  percentage damage caused to the plant, ECHCG: 2 (2=20-39%)
[4]
  percentage damage caused to the plant, AMARE: 5 (5=80-100%)

## COc1ccnc2c1c(O)c(-c1c(Cl)ccc(Cl)c1OCc1ccccc1)c(=O)n2CC(F)F [Compound 4.007]
[1]
  percentage damage caused to the plant, ALOMY: 3 (3=40-59%)
Solanum nigrum (SOLNI)
  percentage damage caused to the plant, SOLNI: 5 (5=80-100%)
[2]
  percentage damage caused to the plant, IPOHE: 5 (5=80-100%)
Setaria faberi (SETFA)
  percentage damage caused to the plant, SETFA: 2 (2=20-39%)
[3]
  percentage damage caused to the plant, ECHCG: 3 (3=40-59%)
[4]
  percentage damage caused to the plant, AMARE: 5 (5=80-100%)

## O=c1c(-c2c(Cl)ccc(Cl)c2OCc2ccccc2)c(O)c2nccnc2n1CC(F)F [Compound 4.008]
[1]
  percentage damage caused to the plant, ALOMY: 4 (4=60-79%)
Solanum nigrum (SOLNI)
  percentage damage caused to the plant, SOLNI: 5 (5=80-100%)
[2]
  percentage damage caused to the plant, IPOHE: 5 (5=80-100%)
Setaria faberi (SETFA)
  percentage damage caused to the plant, SETFA: 5 (5=80-100%)
[3]
  percentage damage caused to the plant, ECHCG: 5 (5=80-100%)
[4]
  percentage damage caused to the plant, AMARE: 5 (5=80-100%)

## C#CCn1c(=O)c(-c2c(F)ccc(Cl)c2OCc2ccccc2)c(OC(=O)C(C)C)c2cccnc21 [Compound 5.001]
[1]
  percentage damage caused to the plant, ALOMY: 1 (1=0-19%)
Solanum nigrum (SOLNI)
  percentage damage caused to the plant, SOLNI: 5 (5=80-100%)
[2]
  percentage damage caused to the plant, IPOHE: 5 (5=80-100%)
Setaria faberi (SETFA)
  percentage damage caused to the plant, SETFA: 2 (2=20-39%)
[3]
  percentage damage caused to the plant, ECHCG: 3 (3=40-59%)
[4]
  percentage damage caused to the plant, AMARE: 5 (5=80-100%)

## C#CCn1c(=O)c(-c2c(F)ccc(Cl)c2OCc2ccccc2)c(OC(=O)C(C)C)c2nccnc21 [Compound 5.003]
[1]
  percentage damage caused to the plant, ALOMY: 2 (2=20-39%)
Solanum nigrum (SOLNI)
  percentage damage caused to the plant, SOLNI: 5 (5=80-100%)
[2]
  percentage damage caused to the plant, IPOHE: 5 (5=80-100%)
Setaria faberi (SETFA)
  percentage damage caused to the plant, SETFA: 5 (5=80-100%)
[3]
  percentage damage caused to the plant, ECHCG: 2 (2=20-39%)
[4]
  percentage damage caused to the plant, AMARE: 5 (5=80-100%)

## C#CCn1c(=O)c(-c2c(F)ccc(Cl)c2OCc2ccccc2)c(O)c2cccnc21 [Compound 6.001]
[1]
  percentage damage caused to the plant, ALOMY: 3 (3=40-59%)
Solanum nigrum (SOLNI)
  percentage damage caused to the plant, SOLNI: 5 (5=80-100%)
[2]
  percentage damage caused to the plant, IPOHE: 5 (5=80-100%)
Setaria faberi (SETFA)
  percentage damage caused to the plant, SETFA: 2 (2=20-39%)
[3]
  percentage damage caused to the plant, ECHCG: 4 (4=60-79%)
[4]
  percentage damage caused to the plant, AMARE: 5 (5=80-100%)

## C#CCn1c(=O)c(-c2c(F)ccc(Cl)c2OCc2ccccc2)c(O)c2c(OC)ccnc21 [Compound 6.002]
[1]
  percentage damage caused to the plant, ALOMY: 5 (5=80-100%)
Solanum nigrum (SOLNI)
  percentage damage caused to the plant, SOLNI: 5 (5=80-100%)
[2]
  percentage damage caused to the plant, IPOHE: 5 (5=80-100%)
Setaria faberi (SETFA)
  percentage damage caused to the plant, SETFA: 5 (5=80-100%)
[3]
  percentage damage caused to the plant, ECHCG: 5 (5=80-100%)
[4]
  percentage damage caused to the plant, AMARE: 5 (5=80-100%)

## C#CCn1c(=O)c(-c2c(F)ccc(Cl)c2OCc2ccccc2)c(O)c2nccnc21 [Compound 6.003]
[1]
  percentage damage caused to the plant, ALOMY: 4 (4=60-79%)
Solanum nigrum (SOLNI)
  percentage damage caused to the plant, SOLNI: 5 (5=80-100%)
[2]
  percentage damage caused to the plant, IPOHE: 5 (5=80-100%)
Setaria faberi (SETFA)
  percentage damage caused to the plant, SETFA: 5 (5=80-100%)
[3]
  percentage damage caused to the plant, ECHCG: 4 (4=60-79%)
[4]
  percentage damage caused to the plant, AMARE: 5 (5=80-100%)

## CC(C)C(=O)Oc1c(-c2c(F)ccc(Cl)c2OCc2ccccc2)c(=O)n(CC(F)F)c2ncccc12 [Compound 7.001]
[1]
  percentage damage caused to the plant, ALOMY: 1 (1=0-19%)
Solanum nigrum (SOLNI)
  percentage damage caused to the plant, SOLNI: 5 (5=80-100%)
[2]
  percentage damage caused to the plant, IPOHE: 5 (5=80-100%)
Setaria faberi (SETFA)
  percentage damage caused to the plant, SETFA: 1 (1=0-19%)
[3]
  percentage damage caused to the plant, ECHCG: 1 (1=0-19%)
[4]
  percentage damage caused to the plant, AMARE: 5 (5=80-100%)

## COc1ccnc2c1c(OC(C)=O)c(-c1c(F)ccc(Cl)c1OCc1ccccc1)c(=O)n2CC(F)F [Compound 7.002]
[1]
  percentage damage caused to the plant, ALOMY: 4 (4=60-79%)
Solanum nigrum (SOLNI)
  percentage damage caused to the plant, SOLNI: 5 (5=80-100%)
[2]
  percentage damage caused to the plant, IPOHE: 5 (5=80-100%)
Setaria faberi (SETFA)
  percentage damage caused to the plant, SETFA: 5 (5=80-100%)
[3]
  percentage damage caused to the plant, ECHCG: 5 (5=80-100%)
[4]
  percentage damage caused to the plant, AMARE: 5 (5=80-100%)

## CC(C)C(=O)Oc1c(-c2c(F)ccc(Cl)c2OCc2ccccc2)c(=O)n(CC(F)F)c2nccnc12 [Compound 7.003]
[1]
  percentage damage caused to the plant, ALOMY: 2 (2=20-39%)
Solanum nigrum (SOLNI)
  percentage damage caused to the plant, SOLNI: 5 (5=80-100%)
[2]
  percentage damage caused to the plant, IPOHE: 5 (5=80-100%)
Setaria faberi (SETFA)
  percentage damage caused to the plant, SETFA: 5 (5=80-100%)
[3]
  percentage damage caused to the plant, ECHCG: 2 (2=20-39%)
[4]
  percentage damage caused to the plant, AMARE: 5 (5=80-100%)
